From US11324768B2, “Applications of triacetyl-3-hydroxyl phenyl adenosine in treating vascular inflammations or improving vascular endothelium functions” (priority 2016, dated 2022)

Experiments:
Type in all cases: in vivo
thoracic aorta = experiment: Endothelial function of thoracic aorta in ApoE−/− mice (vascular ring, Ach / SNP relaxation)
Description: (§1) After 1 week of adaptive feeding, the animals were randomly divided into 7 groups according to body weight: normal control group, model control group A769662 (30 mg/kg) administration group, metformin (260 mg/kg) administration group, IMM-H007 low, medium, and high administration groups (50, 100, 200 mg/kg), 8 in each group, and were given a high-fat diet (78.6% basal diet, 10% lard, 1.0% cholesterol, 10% egg yolk powder, and 0.4% bile salt), and simultaneously administered intragastrically at a dose of 0.1 ml/10 g body weight, and were continuously administered and fed for 8 weeks to establish an atherosclerosis model.
The mice were anesthetized. The thoracic aorta was quickly taken, after carefully stripping the surrounding tissue, was cut into a vascular ring with a length of about 3 mm. The vascular ring was carefully hung on a tonotransducer, given an initial tension of 0.5 g and equilibrated for 90 minutes or more. During the equilibration process, the fluid was replaced every 20 minutes, aeration was maintained and the temperature was maintained at 37° C. The vascular ring was equilibrated for about 1 hour and stimulated twice with saturated KCl (60 mM) to detect whether the blood vessel was active. After vasoconstriction was stabilized, KCl was washed away immediately. After the last replacement of the fluid, the vascular ring was equilibrated for 20 minutes, given phenylephrine 1 μM to stimulate vasoconstriction, and after vasoconstriction was stabilized, it was cumulatively administered with acetylcholine (Ach, 1×10^−10 to […]) and sodium nitroprusside (SNP, 10^−10 to 10^−4 M) to record the vasodilation curve. Vasodilation rate=[PE-induced vascular tone (g)-vascular tension after addition of ACh (g)][…][PE contraction-induced tension (g)-basal vascular tone (g)]×100%.

AMPK-eNOS pathway = experiment: Mechanism of improving endothelial function (Western Blotting, total nitric oxide synthase activity in serum); conditions: ApoE−/− mice
Description: as §1
The expression levels of AMPK, pAMPK, peNOS, eNOS, Caveolin-1 proteins were analyzed and measured by Western Blotting to determine the total nitric oxide synthase activity in serum.

ApoE−/− mice [1] = experiment: Plaque area in ApoE−/− mice (oil red O staining of aorta and aortic root); conditions: for plaque area, Overall length of aorta: in % (unit assumed)
Description: After 1 week of adaptive feeding, the animals were randomly divided into 7 groups according to body weight: normal control group, model control group A769662 (30 mg/kg) administration group, metformin (260 mg/kg) administration group, IMM-H007 low, medium, and high administration groups (50, 100, 200 mg/kg), 8 in each group, and were given a high-fat diet (78.6% basal diet, 10% lard, 1.0% cholesterol, 10% egg yolk powder, and 0.4% bile salt), and simultaneously administered intragastrically at a dose of 0.1 ml/10 g body weight, […] model.
The aortic root was stained with oil red O and the overall length of the aorta was stained with oil red O. The pathological images were analyzed by Photoshop, Image 1, and Image-Pro Plus softwares. The pathological grading data were statistically analyzed using Chi-square test.

Ob/Ob obese mice = experiment: Biochemical indexes in Ob/Ob obese mice; conditions: 400 mg/kg
Description: After 1 week of adaptive feeding, animals were randomly divided into two groups according to body weight: model control group, and IMM-H007 group (400 mg/kg), 10 in each group, and were given normal feed and simultaneously administered intragastrically at a dose of 0.1 ml/10 g body weight, and were continuously administered and fed for 9 weeks. The changes of food intake and body weight were recorded, and routine biochemical indicators such as blood lipids and blood glucose, etc. were measured. After 9 weeks, 3 animals were taken from each group and the mesenteric arterioles were taken for measurement of vascular endothelial function in the same manner as in Example 2.
Detection Indicators (1) Routine Biochemical Indicators and (2) Vascular Endothelial Function

ApoE−/− mice [2] = experiment: Blood lipid levels in high-fat-fed ApoE−/− mice; conditions: 200 mg/kg, 8 weeks, high-fat diet
Description: as §1
(1) Effect of IMM-H007 on Blood Lipid Levels in ApoE−/− Mice: Total Cholesterol (TC), Triglyceride (TG), Low-Density Lipoprotein Cholesterol (LDL), High-Density Lipoprotein Cholesterol (HDL), and Free Fatty Acid (FFA)
Operated according to kit instructions

CC(=O)OCC1OC(n2cnc3c(Nc4cccc(O)c4)ncnc32)C(OC(C)=O)C1OC(C)=O (stereo not shown) [IMM-H007, 2′,3,′ 5′-triacetyl-N^6(3-hydroxyphenyl)adenosine]
sodium nitroprusside endothelium-independent relaxation of aortic vessel (thoracic aorta; 50 mg/kg, 1 × 10^−4 M SNP): 97.8 ± 4.9% | acetylcholine endothelium-dependent relaxation of aortic vessel (thoracic aorta; 50 mg/kg, 1 × 10^−5 M Ach): 91.0 ± 2.3 % | sodium nitroprusside endothelium-independent relaxation of aortic vessel (thoracic aorta; 50 mg/kg, 1 × 10^−5 M SNP): 89.4 ± 6.8% | acetylcholine endothelium-dependent relaxation of aortic vessel (thoracic aorta; 50 mg/kg, 1 × 10^−6 M Ach): 67.5 ± 11.0 % | sodium nitroprusside endothelium-independent relaxation of aortic vessel (thoracic aorta; 50 mg/kg, 1 × 10^−6 M SNP): 87.2 ± 10.1% | acetylcholine endothelium-dependent relaxation of aortic vessel (thoracic aorta; 50 mg/kg, 1 × 10^−7 M Ach): 54.1 ± 18.8 % | sodium nitroprusside endothelium-independent relaxation of aortic vessel (thoracic aorta; 50 mg/kg, 1 × 10^−7 M SNP): 68.3 ± 20.5% | acetylcholine endothelium-dependent relaxation of aortic vessel (thoracic aorta; 50 mg/kg, 1 × 10^−8 M Ach): 39.2 ± 14.0% | sodium nitroprusside endothelium-independent relaxation of aortic vessel (thoracic aorta; 50 mg/kg, 1 × 10^−8 M SNP): 58.4 ± 13.8% | acetylcholine endothelium-dependent relaxation of aortic vessel (thoracic aorta; 50 mg/kg, 1 × 10^−9 M Ach): 29.3 ± 11.2% | sodium nitroprusside endothelium-independent relaxation of aortic vessel (thoracic aorta; 50 mg/kg, 1 × 10^−9 M SNP): 43.1 ± 24.6% | acetylcholine endothelium-dependent relaxation of aortic vessel (thoracic aorta; 50 mg/kg, 1 × 10^−10 M Ach): 11.6 ± 7.0% | sodium nitroprusside endothelium-independent relaxation of aortic vessel (thoracic aorta; 50 mg/kg, 1 × 10^−10 M SNP): 18.0 ± 16.3% | acetylcholine endothelium-dependent relaxation of aortic caused by high fat (thoracic aorta; 50 mg/kg, compared with the model control group): significantly improve | sodium nitroprusside endothelium-independent relaxation of aortic vessel (thoracic aorta; 200 mg/kg, 1 × 10^−4 M SNP): 97.9 ± 10.8% | acetylcholine endothelium-dependent relaxation of aortic vessel (thoracic aorta; 200 mg/kg, 1 × 10^−5 M Ach): 97.8 ± 8.2 % | sodium nitroprusside endothelium-independent relaxation of aortic vessel (thoracic aorta; 200 mg/kg, 1 × 10^−5 M SNP): 95.4 ± 8.5% | acetylcholine endothelium-dependent relaxation of aortic vessel (thoracic aorta; 200 mg/kg, 1 × 10^−6 M Ach): 87.4 ± 10.9 % | sodium nitroprusside endothelium-independent relaxation of aortic vessel (thoracic aorta; 200 mg/kg, 1 × 10^−6 M SNP): 94.1 ± 20.6% | acetylcholine endothelium-dependent relaxation of aortic vessel (thoracic aorta; 200 mg/kg, 1 × 10^−7 M Ach): 64.2 ± 17.7 % | sodium nitroprusside endothelium-independent relaxation of aortic vessel (thoracic aorta; 200 mg/kg, 1 × 10^−7 M SNP): 73.6 ± 23.3% | acetylcholine endothelium-dependent relaxation of aortic vessel (thoracic aorta; 200 mg/kg, 1 × 10^−8 M Ach): 47.6 ± 22.5% | sodium nitroprusside endothelium-independent relaxation of aortic vessel (thoracic aorta; 200 mg/kg, 1 × 10^−8 M SNP): 62.3 ± 22.7% | acetylcholine endothelium-dependent relaxation of aortic vessel (thoracic aorta; 200 mg/kg, 1 × 10^−9 M Ach): 31.4 ± 18.5% | sodium nitroprusside endothelium-independent relaxation of aortic vessel (thoracic aorta; 200 mg/kg, 1 × 10^−9 M SNP): 30.5 ± 20.8% | acetylcholine endothelium-dependent relaxation of aortic vessel (thoracic aorta; 200 mg/kg, 1 × 10^−10 M Ach): 9.4 ± 3.9% | sodium nitroprusside endothelium-independent relaxation of aortic vessel (thoracic aorta; 200 mg/kg, 1 × 10^−10 M SNP): 12.4 ± 8.4% | NO production (AMPK-eNOS pathway): increases | AMPK-eNOS pathway (AMPK-eNOS pathway; Western Blotting): activation | activity of nitric oxide synthase (AMPK-eNOS pathway; serum): improves | plaque area, Frozen section of root of aorta % (ApoE−/− mice [1]; 50 mg/kg): 3.66 ± 2.65 % | plaque area, Overall length of aorta (ApoE−/− mice [1]; 50 mg/kg): 6.18 ± 3.57 | plaque area, Frozen section of root of aorta % (ApoE−/− mice [1]; 100 mg/kg): 2.36 ± 0.43 % | plaque area, Overall length of aorta (ApoE−/− mice [1]; 100 mg/kg): 3.93 ± 2.40 | plaque area, Frozen section of root of aorta % (ApoE−/− mice [1]; 200 mg/kg): 2.97 ± 0.92 % | plaque area, Overall length of aorta (ApoE−/− mice [1]; 200 mg/kg): 3.67 ± 1.69 | lipid accumulation at the plaque site, section staining of the root of aorta (ApoE−/− mice [1]; high-fat diet for 10 weeks): a decrease | plaque accumulation in the arch of aorta and overall length of aorta (ApoE−/− mice [1]; high-fat diet for 10 weeks): significantly reduce | Fasting blood glucose (Ob/Ob obese mice; 4 week): 6.69 ± 0.12 mmol/L | Fasting insulin (Ob/Ob obese mice; 4 week): 1.60 ± 0.18 ng/mL | Free fatty acid (Ob/Ob obese mice; 4 week): 1.06 ± 0.03 mEq/l | Ingestion (Ob/Ob obese mice; 4 week): 5.48 ± 0.05 g/day | Low-density lipoprotein (Ob/Ob obese mice; 4 week): 1.16 ± 0.04 mmol/L | Total cholesterol (Ob/Ob obese mice; 4 week): 3.57 ± 0.07 mmol/L | Triglyceride (Ob/Ob obese mice; 4 week): 0.69 ± 0.03 mmol/L | Body weight (Ob/Ob obese mice; 9 week): 51.18 ± 0.67 g | Fasting blood glucose (Ob/Ob obese mice; 9 week): 9.98 ± 0.51 mmol/L | Fasting insulin (Ob/Ob obese mice; 9 week): 6.07 ± 0.48 ng/mL | Free fatty acid (Ob/Ob obese mice; 9 week): 0.44 ± 0.07 mEq/l | Ingestion (Ob/Ob obese mice; 9 week): 5.47 ± 0.08 g/day | Low-density lipoprotein (Ob/Ob obese mice; 9 week): 1.70 ± 0.28 mmol/L | Total cholesterol (Ob/Ob obese mice; 9 week): 4.13 ± 0.67 mmol/L | Triglyceride (Ob/Ob obese mice; 9 week): 0.52 ± 0.09 mmol/L | High-density lipoprotein (HDL-C) (ApoE−/− mice [2]): 1.64 ± 1.15 | Triglyceride (TG) (ApoE−/− mice [2]): 1.48 ± 0.34
